A word on the IC50: it is the midpoint of a concentration-inhibition curve.

Assay [1] addresses T1, Poly [ADP-ribose] polymerase tankyrase-1 (Homo sapiens, UniProt O95271).
T1 sequence (O95271 whole entry): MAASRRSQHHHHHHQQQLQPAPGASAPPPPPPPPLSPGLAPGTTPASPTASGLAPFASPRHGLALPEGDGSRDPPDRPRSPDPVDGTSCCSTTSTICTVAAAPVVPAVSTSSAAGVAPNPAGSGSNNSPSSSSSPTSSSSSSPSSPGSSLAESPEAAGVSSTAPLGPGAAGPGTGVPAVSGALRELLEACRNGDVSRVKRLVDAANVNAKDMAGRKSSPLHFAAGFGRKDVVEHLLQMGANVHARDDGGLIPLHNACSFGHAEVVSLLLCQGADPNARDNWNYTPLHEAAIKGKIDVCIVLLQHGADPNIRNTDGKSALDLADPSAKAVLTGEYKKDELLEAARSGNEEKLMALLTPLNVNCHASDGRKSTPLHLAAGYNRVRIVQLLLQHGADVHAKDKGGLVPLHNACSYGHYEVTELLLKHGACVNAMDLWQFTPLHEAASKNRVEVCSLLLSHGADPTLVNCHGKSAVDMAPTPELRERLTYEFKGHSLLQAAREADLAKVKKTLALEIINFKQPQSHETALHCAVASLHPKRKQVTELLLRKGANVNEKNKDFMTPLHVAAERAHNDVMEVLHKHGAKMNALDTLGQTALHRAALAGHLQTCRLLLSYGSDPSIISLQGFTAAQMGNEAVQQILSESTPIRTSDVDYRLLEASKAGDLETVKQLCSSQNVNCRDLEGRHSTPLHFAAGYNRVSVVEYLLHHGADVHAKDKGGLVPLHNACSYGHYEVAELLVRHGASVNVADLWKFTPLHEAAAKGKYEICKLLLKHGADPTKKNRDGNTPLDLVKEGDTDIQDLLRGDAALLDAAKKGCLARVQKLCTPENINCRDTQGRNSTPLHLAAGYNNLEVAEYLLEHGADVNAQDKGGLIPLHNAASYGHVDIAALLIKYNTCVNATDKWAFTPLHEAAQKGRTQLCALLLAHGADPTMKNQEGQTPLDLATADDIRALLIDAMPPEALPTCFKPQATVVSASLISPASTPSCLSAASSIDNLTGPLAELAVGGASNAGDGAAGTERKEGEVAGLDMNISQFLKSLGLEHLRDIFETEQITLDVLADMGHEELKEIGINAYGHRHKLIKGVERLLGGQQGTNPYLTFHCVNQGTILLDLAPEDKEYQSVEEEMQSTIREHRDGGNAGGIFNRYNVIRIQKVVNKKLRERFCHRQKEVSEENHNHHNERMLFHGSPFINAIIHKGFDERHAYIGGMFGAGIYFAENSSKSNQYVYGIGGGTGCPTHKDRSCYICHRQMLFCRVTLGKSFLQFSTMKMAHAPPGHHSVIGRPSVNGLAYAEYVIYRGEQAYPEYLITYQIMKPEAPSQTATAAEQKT
The assay is described as follows: Inhibition of human TNKS1 catalytic activity.

The test system of a further assay is HT-29. The assay is described as follows: Antiproliferative activity against human HT-29 cells.
Assay [2] can be described thus: Antiproliferative activity against human FEK4 cells.
Assay [3] concerns the target T2, Poly [ADP-ribose] polymerase tankyrase-2 (Homo sapiens, UniProt Q9H2K2).
T2 sequence (Q9H2K2 whole entry): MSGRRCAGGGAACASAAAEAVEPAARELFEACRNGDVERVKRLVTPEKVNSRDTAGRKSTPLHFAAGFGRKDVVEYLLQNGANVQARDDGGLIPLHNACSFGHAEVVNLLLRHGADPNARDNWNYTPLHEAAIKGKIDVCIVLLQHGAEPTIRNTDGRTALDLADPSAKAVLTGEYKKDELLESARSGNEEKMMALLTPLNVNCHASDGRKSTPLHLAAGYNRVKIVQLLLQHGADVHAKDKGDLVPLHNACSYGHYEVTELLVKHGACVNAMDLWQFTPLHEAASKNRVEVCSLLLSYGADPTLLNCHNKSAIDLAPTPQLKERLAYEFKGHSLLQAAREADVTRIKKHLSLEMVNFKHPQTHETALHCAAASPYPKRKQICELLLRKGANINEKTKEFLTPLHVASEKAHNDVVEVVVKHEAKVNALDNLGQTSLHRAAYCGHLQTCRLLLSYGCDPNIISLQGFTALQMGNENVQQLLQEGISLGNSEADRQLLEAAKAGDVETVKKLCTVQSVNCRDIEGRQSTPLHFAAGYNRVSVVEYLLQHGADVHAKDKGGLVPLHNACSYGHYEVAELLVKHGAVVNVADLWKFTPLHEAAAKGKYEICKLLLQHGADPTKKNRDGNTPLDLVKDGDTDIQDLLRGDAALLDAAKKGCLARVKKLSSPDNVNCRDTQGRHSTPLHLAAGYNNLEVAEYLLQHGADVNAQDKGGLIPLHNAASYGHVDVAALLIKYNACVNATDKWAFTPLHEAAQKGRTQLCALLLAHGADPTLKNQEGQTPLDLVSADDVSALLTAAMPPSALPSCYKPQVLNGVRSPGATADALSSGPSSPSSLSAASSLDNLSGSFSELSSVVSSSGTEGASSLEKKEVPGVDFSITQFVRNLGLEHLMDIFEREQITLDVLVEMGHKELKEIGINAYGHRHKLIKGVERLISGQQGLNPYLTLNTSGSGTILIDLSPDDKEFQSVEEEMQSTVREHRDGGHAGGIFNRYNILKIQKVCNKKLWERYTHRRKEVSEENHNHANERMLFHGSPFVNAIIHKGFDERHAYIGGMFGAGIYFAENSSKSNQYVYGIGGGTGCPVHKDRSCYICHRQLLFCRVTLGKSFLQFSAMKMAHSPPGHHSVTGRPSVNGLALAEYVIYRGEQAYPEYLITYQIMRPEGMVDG
The assay is described as follows: Inhibition of human TNKS2 catalytic activity.

Assay [4] deals with Poly [ADP-ribose] polymerase 1 (Homo sapiens, UniProt P09874). The assay is described as follows: Inhibition of human PARP1.
Chain of Poly [ADP-ribose] polymerase 1 (P09874 whole entry): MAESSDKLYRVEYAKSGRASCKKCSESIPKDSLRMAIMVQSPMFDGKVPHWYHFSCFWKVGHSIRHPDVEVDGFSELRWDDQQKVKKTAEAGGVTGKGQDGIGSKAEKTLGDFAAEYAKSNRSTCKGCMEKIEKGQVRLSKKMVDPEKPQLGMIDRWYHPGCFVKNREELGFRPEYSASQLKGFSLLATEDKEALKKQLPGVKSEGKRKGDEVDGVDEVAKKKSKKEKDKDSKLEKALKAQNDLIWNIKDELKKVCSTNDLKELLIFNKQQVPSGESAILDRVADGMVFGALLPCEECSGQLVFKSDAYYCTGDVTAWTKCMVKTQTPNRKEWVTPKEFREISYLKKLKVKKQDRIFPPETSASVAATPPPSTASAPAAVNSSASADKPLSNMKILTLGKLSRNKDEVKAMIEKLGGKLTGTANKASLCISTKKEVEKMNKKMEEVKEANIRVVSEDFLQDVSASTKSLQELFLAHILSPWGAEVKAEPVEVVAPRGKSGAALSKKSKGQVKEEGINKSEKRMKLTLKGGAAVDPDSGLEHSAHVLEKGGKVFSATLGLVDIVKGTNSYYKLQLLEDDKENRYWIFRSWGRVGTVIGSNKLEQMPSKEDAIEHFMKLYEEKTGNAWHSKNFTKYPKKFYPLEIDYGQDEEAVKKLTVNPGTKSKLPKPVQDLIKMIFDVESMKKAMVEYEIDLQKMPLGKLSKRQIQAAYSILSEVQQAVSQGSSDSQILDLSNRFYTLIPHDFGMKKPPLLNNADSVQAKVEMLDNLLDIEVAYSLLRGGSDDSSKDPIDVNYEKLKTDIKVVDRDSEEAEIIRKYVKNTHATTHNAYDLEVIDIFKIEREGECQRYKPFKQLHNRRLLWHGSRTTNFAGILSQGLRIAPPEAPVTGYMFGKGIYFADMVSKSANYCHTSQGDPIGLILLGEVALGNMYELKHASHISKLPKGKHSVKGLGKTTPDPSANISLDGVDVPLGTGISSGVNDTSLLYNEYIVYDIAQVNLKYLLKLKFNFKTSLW

Some results are limits rather than exact numbers.

In the case of `O=c1[nH]c(-c2ccccc2)cc2ncccc12`, the IC50 in assay [1] was 5 µM; in the assay with HT-29, more than 500 µM; in assay [2] it was more than 500 µM.

As for `O=c1[nH]c(-c2ccccc2)cc2ccncc12`, the IC50 in assay [1] was 1.3 µM; in the assay on HT-29 it was more than 500 µM; in assay [2], more than 500 µM.

Take `Cc1ccc(-c2cc3cnccc3c(=O)[nH]2)cc1`: the IC50 was 6.2 µM in assay [1], 157 µM in the assay with HT-29 and more than 500 µM in assay [2].

`CN1CCCc2c1cc(-c1ccccc1)[nH]c2=O`: the IC50 in assay [1] is 0.097 µM; with HT-29, more than 500 µM; in assay [2], more than 500 µM.

For `COc1ccc(-c2cc3c(c(=O)[nH]2)CCCN3C)cc1`, the IC50 in assay [1] was 0.0011 µM; with HT-29, more than 200 µM; in assay [2] it was more than 200 µM.

With `CN1CCCc2c1cc(-c1ccc(C(F)(F)F)cc1)[nH]c2=O`, the IC50 in assay [1] was 0.0015 µM; in the assay with HT-29, more than 200 µM; in assay [2], more than 200 µM.

As to `CN1CCCc2c1cc(-c1ccc(Cl)cc1)[nH]c2=O`, the IC50 is 0.021 µM in assay [1], 26 µM with HT-29 and more than 500 µM in assay [2].

Consider `CN1CCCc2c1cc(-c1ccc(Br)cc1)[nH]c2=O`, for which the IC50 in assay [3] was 0.423 µM; in assay [1], 0.0061 µM; in assay [4], 2 µM; in the assay on HT-29, 26 µM; in assay [2] it was more than 500 µM.
